Measured values from ChEMBL document CHEMBL4406838, “Neurobehavioral investigation and acetylcholinesterase inhibitory activity study for some new coumarin derivatives” (Eur J Med Chem, 2019).
Activity calls are given as the source filed them. No cut-off for these calls is given here.

What was measured:
Acetylcholinesterase = Acetylcholinesterase (Homo sapiens, UniProt P22303); assay: Inhibition of AChE (unknown origin) using acetylthiocholine iodide as substrate by Ellman's method
Mus musculus [1] = assay: Cognitive enhancing effect in Swiss albino mouse model of STZ-induced cognition deficit assessed as increase in time spent in target quadrant at 2.5 mg/kg, po administrated for 15 days and measured at 5th day of training session for 60 secs by Morris water maze test; type: functional, organism-based
Mus musculus [2] = assay: Cognitive enhancing effect in Swiss albino mouse model of STZ-induced cognition deficit assessed as reduction in escape latency time to find removed platform position at 2.5 mg/kg, po administrated for 15 days and measured for 4 days by Morris water maze test; type: functional, organism-based
Mus musculus [3] = assay: Memory enhancement effect in Swiss albino mouse model of STZ-induced cognition deficit assessed as increase in exploratory preference at 2.5 mg/kg, po administrated for 15 days and measured for 5 mins by novel object recognition test; type: functional, organism-based
Mus musculus [4] = assay: Cognitive enhancing effect in Swiss albino mouse model of STZ-induced cognition deficit assessed as increase in spontaneous alteration at 2.5 mg/kg, po administrated for 15 days and measured for 8 mins by Y-maze test; type: functional, organism-based
Mus musculus [5] = assay: Neuroprotective activity in Swiss albino mouse model of STZ-induced cognition deficit assessed as reduction in Abeta42 deposition level in brain at 2.5 mg/kg, po administrated for 15 days by ELISA; type: functional, organism-based
Mus musculus [6] = assay: Cognitive enhancing effect in Swiss albino mouse model of STZ-induced cognition deficit assessed as increase in time spent in target quadrant at 3.7 mg/kg, po administrated for 15 days and measured at 5th day of training session for 60 secs by Morris water maze test; type: functional, organism-based
Mus musculus [7] = assay: Cognitive enhancing effect in Swiss albino mouse model of STZ-induced cognition deficit assessed as reduction in escape latency time to find removed platform position at 3.7 mg/kg, po administrated for 15 days and measured for 4 days by Morris water maze test; type: functional, organism-based
Mus musculus [8] = assay: Memory enhancement effect in Swiss albino mouse model of STZ-induced cognition deficit assessed as increase in exploratory preference at 3.7 mg/kg, po administrated for 15 days and measured for 5 mins by novel object recognition test; type: functional, organism-based
Mus musculus [9] = assay: Cognitive enhancing effect in Swiss albino mouse model of STZ-induced cognition deficit assessed as increase in spontaneous alteration at 3.7 mg/kg, po administrated for 15 days and measured for 8 mins by Y-maze test; type: functional, organism-based
Mus musculus [10] = assay: Neuroprotective activity in Swiss albino mouse model of STZ-induced cognition deficit assessed as reduction in Abeta42 deposition level in brain at 3.7 mg/kg, po administrated for 15 days by ELISA; type: functional, organism-based
Mus musculus [11] = assay: Cognitive enhancing effect in Swiss albino mouse model of STZ-induced cognition deficit assessed as increase in time spent in target quadrant at 3.2 mg/kg, po administrated for 15 days and measured at 5th day of training session for 60 secs by Morris water maze test; type: functional, organism-based
Mus musculus [12] = assay: Cognitive enhancing effect in Swiss albino mouse model of STZ-induced cognition deficit assessed as reduction in escape latency time to find removed platform position at 3.2 mg/kg, po administrated for 15 days and measured for 4 days by Morris water maze test; type: functional, organism-based
Mus musculus [13] = assay: Memory enhancement effect in Swiss albino mouse model of STZ-induced cognition deficit assessed as increase in exploratory preference at 3.2 mg/kg, po administrated for 15 days and measured for 5 mins by novel object recognition test; type: functional, organism-based
Mus musculus [14] = assay: Cognitive enhancing effect in Swiss albino mouse model of STZ-induced cognition deficit assessed as increase in spontaneous alteration at 3.2 mg/kg, po administrated for 15 days and measured for 8 mins by Y-maze test; type: functional, organism-based
Mus musculus [15] = assay: Neuroprotective activity in Swiss albino mouse model of STZ-induced cognition deficit assessed as reduction in Abeta42 deposition level in brain at 3.2 mg/kg, po administrated for 15 days by ELISA; type: functional, organism-based

Acetylcholinesterase, sequence (P22303 whole entry): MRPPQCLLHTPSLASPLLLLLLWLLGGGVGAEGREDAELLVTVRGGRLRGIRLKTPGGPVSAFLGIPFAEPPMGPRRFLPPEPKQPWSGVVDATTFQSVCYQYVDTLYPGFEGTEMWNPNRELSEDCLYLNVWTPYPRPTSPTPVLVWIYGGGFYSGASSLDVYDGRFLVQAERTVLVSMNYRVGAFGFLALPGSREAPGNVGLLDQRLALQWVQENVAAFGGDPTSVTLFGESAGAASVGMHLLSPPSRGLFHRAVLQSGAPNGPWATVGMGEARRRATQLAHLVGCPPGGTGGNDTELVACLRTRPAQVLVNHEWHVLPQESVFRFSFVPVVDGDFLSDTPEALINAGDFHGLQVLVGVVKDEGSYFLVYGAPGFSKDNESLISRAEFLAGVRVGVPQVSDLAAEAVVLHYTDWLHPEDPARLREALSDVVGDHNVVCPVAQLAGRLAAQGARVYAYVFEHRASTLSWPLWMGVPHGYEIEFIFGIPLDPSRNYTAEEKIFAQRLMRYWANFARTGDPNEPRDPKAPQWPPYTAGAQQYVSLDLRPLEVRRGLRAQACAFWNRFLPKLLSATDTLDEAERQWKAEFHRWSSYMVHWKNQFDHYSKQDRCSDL

Structure (SMILES) | IC50 (Acetylcholinesterase) [nM] | also measured
CSc1ccc(/C=N/c2ccc3oc(=O)ccc3c2)cc1 | 172 | –
O=C1CSC(c2ccc(F)cc2)N1c1ccc2oc(=O)ccc2c1 (stereo not drawn) | 102 | –
O=C(CNc1ccc2oc(=O)ccc2c1)c1ccccc1 | 148 | –
O=C(CNc1ccc2oc(=O)ccc2c1)N1CCN(c2ccccc2)CC1 | 80 | –
O=C1N/C(=N\c2ccc3oc(=O)ccc3c2)S/C1=C/c1ccc(F)cc1 | 216 | –
O=c1ccc2cc(/N=C/c3ccccc3)ccc2o1 | 114 | –
CN(C)c1ccc(/C=N/c2ccc3oc(=O)ccc3c2)cc1 | 41 | Activity (Mus musculus [1]): Active; Activity (Mus musculus [2]): Active; Activity (Mus musculus [3]): Active; Activity (Mus musculus [4]): Active; Activity (Mus musculus [5]): Active
O=C(CNc1ccc(F)cc1)Nc1ccc2oc(=O)ccc2c1 | 62 | –
COc1ccc(C2SCC(=O)N2c2ccc3oc(=O)ccc3c2)cc1 (stereo not drawn) | 71.1 | –
CN(C)c1ccc(/C=C2/S/C(=N/c3ccc4oc(=O)ccc4c3)NC2=O)cc1 | 84 | –
O=c1ccc2cc(/N=C/c3ccc(Br)cc3)ccc2o1 | 56.9 | –
COc1ccc(NCC(=O)Nc2ccc3oc(=O)ccc3c2)cc1 | 55.2 | –
O=C1N/C(=N\c2ccc3oc(=O)ccc3c2)S/C1=C/c1ccc(Br)cc1 | 276 | –
O=C(CNc1ccc2oc(=O)ccc2c1)N1CCOCC1 | 37 | Activity (Mus musculus [6]): Active; Activity (Mus musculus [7]): Active; Activity (Mus musculus [8]): Active; Activity (Mus musculus [9]): Active; Activity (Mus musculus [10]): Active
O=C1N/C(=N\c2ccc3oc(=O)ccc3c2)S/C1=C/c1ccc(Cl)cc1 | 173 | –
COc1ccc(C(=O)CNc2ccc3oc(=O)ccc3c2)cc1 | 55 | Activity (Mus musculus [11]): Active; Activity (Mus musculus [12]): Active; Activity (Mus musculus [13]): Active; Activity (Mus musculus [14]): Active; Activity (Mus musculus [15]): Active
O=c1ccc2cc(/N=C/c3ccc(Cl)cc3)ccc2o1 | 78.9 | –
COc1ccc(/C=C2/S/C(=N/c3ccc4oc(=O)ccc4c3)NC2=O)cc1 | 49.8 | –
CSc1ccc(C2SCC(=O)N2c2ccc3oc(=O)ccc3c2)cc1 (stereo not drawn) | 311 | –
COc1ccc(/C=N/c2ccc3oc(=O)ccc3c2)cc1 | 135 | –
O=C1N/C(=N\c2ccc3oc(=O)ccc3c2)S/C1=C/c1ccccc1 | 94.1 | –
CSc1ccc(/C=C2/S/C(=N/c3ccc4oc(=O)ccc4c3)NC2=O)cc1 | 151 | –
O=c1ccc2cc(/N=C/c3ccc(F)cc3)ccc2o1 | 226 | –
